In PubChem BioAssay AID248 (DTP/NCI, 2004) one finds T/C data, which are given here for 22 compounds.

SMILES strings stand for the structures. Where “and” joins values, the source holds several entries; their conditions need not be identical. Equal values may be shown once. Inconclusive results and toxic doses are left out.

For the experiment, the system named is L1210 leukemia ip in BDF1 mice, survival T/C. The experiment in a line: NCI In Vivo Anticancer Drug Screen. Data for tumor model L1210 Leukemia (intraperitoneal) in B6D2F1 (BDF1) mice. To be noted: endpoint: mean survival time, higher = longer survival. In outline:
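Value reflects the ratio of survival in compound-treated mice to survival in vehicle-treated controls, with both groups carrying the same transplanted tumor.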

Setting [1] is: dose: 100.0 mg/kg/injection, schedule: Q04DX003 (ip), vehicle: saline with Tween-80.
Where [2] appears, read: dose: 200.0 mg/kg/injection, schedule: Q04DX003 (ip), vehicle: saline with Tween-80.
Where [3] appears, read: dose: 400.0 mg/kg/injection, schedule: Q04DX003 (ip), vehicle: saline with Tween-80.
[4] abbreviates: dose: 100.0 mg/kg/injection, schedule: Q01DX001 (ip), vehicle: Klucel (hydroxypropylcellulose) (HPC).
Setting [5] is: dose: 200.0 mg/kg/injection, schedule: Q01DX001 (ip), vehicle: Klucel (hydroxypropylcellulose) (HPC).
The mark [6] stands for this setting: dose: 100.0 mg/kg/injection, schedule: Q01DX009 (ip), vehicle: saline with Tween-80.
Where [7] appears, read: dose: 200.0 mg/kg/injection, schedule: Q01DX009 (ip), vehicle: saline with Tween-80.
The mark [8] stands for this setting: dose: 100.0 mg/kg/injection, schedule: Q01DX009 (ip), vehicle: saline.
[9] abbreviates: dose: 200.0 mg/kg/injection, schedule: Q01DX009 (ip), vehicle: saline.
[10] abbreviates: dose: 50.0 mg/kg/injection, schedule: Q01DX009 (ip), vehicle: saline.
[11] abbreviates: dose: 25.0 mg/kg/injection, schedule: Q04DX003 (ip), vehicle: saline.
Setting [12] is: dose: 50.0 mg/kg/injection, schedule: Q04DX003 (ip), vehicle: saline.
Where [13] appears, read: dose: 100.0 mg/kg/injection, schedule: Q04DX003 (ip), vehicle: saline.

As for `NOCc1ccsn1`, the T/C was 105 % of control (dose: 100.0 mg/kg/injection, schedule: Q01DX001 (ip), vehicle: other); 96 % of control (dose: 100.0 mg/kg/injection, schedule: Q01DX009 (ip), vehicle: sodium bicarbonate); 102 % of control (dose: 100.0 mg/kg/injection, schedule: Q04DX003 (ip), vehicle: other); 111 % of control (dose: 200.0 mg/kg/injection, schedule: Q01DX001 (ip), vehicle: other); 98 % of control (dose: 200.0 mg/kg/injection, schedule: Q01DX009 (ip), vehicle: sodium bicarbonate); 95 % of control (dose: 200.0 mg/kg/injection, schedule: Q04DX003 (ip), vehicle: other). Moreover, the T/C (dose: 400.0 mg/kg/injection, schedule: Q01DX001 (ip), vehicle: other) is 94 % of control.
Turning to `CCCCCCCCCCOc1ccc(C=O)c(OC)c1`, the T/C (dose: 100.0 mg/kg/injection, schedule: Q04DX003 (ip), vehicle: Klucel (hydroxypropylcellulose) (HPC)) was 98 % of control; the T/C (dose: 200.0 mg/kg/injection, schedule: Q04DX003 (ip), vehicle: Klucel (hydroxypropylcellulose) (HPC)) is 93 % of control; the T/C (dose: 400.0 mg/kg/injection, schedule: Q04DX003 (ip), vehicle: Klucel (hydroxypropylcellulose) (HPC)) is 91 % of control.
As to `O=S(=O)(Cl)OC(CCl)C(OS(=O)(=O)Cl)C(OS(=O)(=O)Cl)C(CCl)OS(=O)(=O)Cl` (centres undefined), the T/C was 102 % of control under setting [1], 97 % of control under setting [2] and 114 % of control under setting [3].
Regarding `O=[N+]([O-])c1ccc(Cl)cc1/C=N\N=C1c2ccccc2-c2ccccc21`, the T/C was 94 % of control (dose: 150.0 mg/kg/injection, schedule: Q01DX001 (ip), vehicle: other) and 100 % of control (dose: 300.0 mg/kg/injection, schedule: Q01DX001 (ip), vehicle: other).
For `CC(C)=NNC(=O)CC#N`, the T/C runs as follows: under setting [4], 86 % of control; under setting [5], 94 % of control.
As for `Oc1cccc(NC(=S)Nc2ccccc2)c1`, the T/C by setting is: (dose: 50.0 mg/kg/injection, schedule: Q01DX001 (ip), vehicle: saline) 100 % of control; (dose: 100.0 mg/kg/injection, schedule: Q01DX001 (ip), vehicle: saline) 94 % of control; (dose: 200.0 mg/kg/injection, schedule: Q01DX001 (ip), vehicle: saline) 97 % of control; (dose: 400.0 mg/kg/injection, schedule: Q01DX001 (ip), vehicle: saline) 97 % of control.
For the compound `Fc1cccc2ccccc12`, the T/C by setting is: under setting [6], 105 % of control; under setting [7], 87 % of control.
As for `O=C(O)c1ccccc1NCc1cc(=O)[nH]c(=O)[nH]1`, the T/C was 101 % of control under setting [1], 98 % of control under setting [2] and 95 % of control under setting [3].
Take `CC1(C)Cc2cc3cc(Cl)ccc3nc2-c2ccccc21`: the T/C was 102 % of control under setting [8]; 98 % of control (dose: 100.0 mg/kg/injection, schedule: Q04DX003 (ip), vehicle: acetone); 89 % of control under setting [9]; 104 % of control (dose: 200.0 mg/kg/injection, schedule: Q04DX003 (ip), vehicle: acetone); 100 % of control (dose: 400.0 mg/kg/injection, schedule: Q01DX009 (ip), vehicle: saline); 94 % of control (dose: 400.0 mg/kg/injection, schedule: Q04DX003 (ip), vehicle: acetone).
Regarding `CC(=O)c1cccc(NC(=O)N2CCN(c3ccccc3)CC2)c1`, the T/C runs as follows: under setting [6], 111 % of control; under setting [7], 100 % of control.
Consider `CCOC(=O)C1C(=O)NCC1c1ccccc1` (centres undefined), for which the T/C by setting is: under setting [10], 94 % of control and 97 % of control; under setting [8], 104 % of control; under setting [9], 108 % of control and 91 % of control.
For `CN1CCN(C(=O)C2C(c3ccccc3)C2c2ccc(Cl)c(Cl)c2)CC1` (centres undefined), the T/C (dose: 12.5 mg/kg/injection, schedule: Q04DX002 (ip), vehicle: saline with Tween-80) was 95 % of control and 98 % of control; the T/C (dose: 25.0 mg/kg/injection, schedule: Q04DX002 (ip), vehicle: saline with Tween-80) is 103 % of control; the T/C (dose: 50.0 mg/kg/injection, schedule: Q04DX002 (ip), vehicle: saline with Tween-80) is 92 % of control and 88 % of control.
For `CCOC(=O)c1ccc(NC(=O)C2CC2)cc1`, the T/C was 113 % of control (dose: 100.0 mg/kg/injection, schedule: Q01DX009 (ip), vehicle: Klucel (hydroxypropylcellulose) (HPC)); 109 % of control (dose: 200.0 mg/kg/injection, schedule: Q01DX009 (ip), vehicle: Klucel (hydroxypropylcellulose) (HPC)); 104 % of control (dose: 400.0 mg/kg/injection, schedule: Q01DX009 (ip), vehicle: Klucel (hydroxypropylcellulose) (HPC)).
In the case of `CC[C@@](O)(C(=O)NC)c1cc2n(c(=O)c1CO)Cc1cc3ccccc3nc1-2`, the T/C was 155 % of control (dose: 2.3 mg/kg/injection, schedule: Q01DX015 (ip), vehicle: saline); 172 % of control (dose: 3.5 mg/kg/injection, schedule: Q01DX015 (ip), vehicle: saline); 110 % of control (dose: 4.0 mg/kg/injection, schedule: Q01DX001 (ip), vehicle: saline); 102 % of control (dose: 5.3 mg/kg/injection, schedule: Q01DX015 (ip), vehicle: saline).
Consider `Cc1cc(Cl)cc([N+](=O)[O-])c1`, for which the T/C is, setting by setting: under setting [6], 96 % of control; under setting [7], 96 % of control; (dose: 400.0 mg/kg/injection, schedule: Q01DX009 (ip), vehicle: saline with Tween-80) 95 % of control.
Turning to `Cc1cc2c(cc1C)C(=O)C(N1CCN(C)CC1)CCC2` (centres undefined), the T/C under setting [1] is 101 % of control.
As to `O=C(c1ccccc1)C12CC3CC(CC(C3)C1)C2`, the T/C was 93 % of control (dose: 75.0 mg/kg/injection, schedule: Q04DX003 (ip), vehicle: Klucel (hydroxypropylcellulose) (HPC)); 96 % of control under setting [4]; 93 % of control (dose: 150.0 mg/kg/injection, schedule: Q04DX003 (ip), vehicle: Klucel (hydroxypropylcellulose) (HPC)); 100 % of control under setting [5]; 106 % of control (dose: 300.0 mg/kg/injection, schedule: Q04DX003 (ip), vehicle: Klucel (hydroxypropylcellulose) (HPC)); 105 % of control (dose: 400.0 mg/kg/injection, schedule: Q01DX001 (ip), vehicle: Klucel (hydroxypropylcellulose) (HPC)).
For the compound `CC(C)NNC(=O)c1ccncc1`, the T/C runs as follows: under setting [11], 107 % of control; under setting [12], 102 % of control; under setting [13], 96 % of control; (dose: 200.0 mg/kg/injection, schedule: Q04DX003 (ip), vehicle: saline) 98 % of control; (dose: 400.0 mg/kg/injection, schedule: Q04DX003 (ip), vehicle: saline) 104 % of control.
Regarding `CCN(CC)CCCC(C)Nc1c2ccc(Cl)cc2nc2cc(Cl)ccc12` (centres undefined), the T/C by setting is: (dose: 25.0 mg/kg/injection, schedule: Q01DX009 (ip), vehicle: saline) 92 % of control; under setting [11], 100 % of control; under setting [10], 95 % of control; under setting [12], 98 % of control; under setting [13], 93 % of control and 86 % of control.
`O=C(O)CCC(=O)CC1CCCCC1`: the T/C under setting [1] is 101 % of control and the T/C under setting [2] was 87 % of control.
Consider `O=C1CSC(=S)N1/N=C/c1c[nH]c2ccc(Br)cc12`, for which the T/C by setting is: (dose: 75.0 mg/kg/injection, schedule: Q01DX001 (ip), vehicle: carboxymethylcellulose (CMC)) 100 % of control; (dose: 150.0 mg/kg/injection, schedule: Q01DX001 (ip), vehicle: carboxymethylcellulose (CMC)) 97 % of control.
For `C=CC[As](=O)(O)O`, the T/C by setting is: (dose: 25.0 mg/kg/injection, schedule: Q04DX003 (ip), vehicle: saline with Tween-80) 98 % of control; (dose: 50.0 mg/kg/injection, schedule: Q04DX003 (ip), vehicle: saline with Tween-80) 104 % of control; under setting [1], 92 % of control.
